The test system of the assay is M. tuberculosis. Kind of assay: Extracellular activity against M. tuberculosis in cholesterol media (Alamar Blue reduction assay). In kind it is cell-based, Mycobacterium tuberculosis. As to conditions: Mycobacterium tuberculosis, 240 h, 7H12-Cholesterol media, 10 days; read-out: Cholesterol broth: alamar blue--EC50. (In general: Resazurin is reduced to fluorescent resorufin, in cell work by metabolically active cells.)

`Cc1noc(CC(=O)N2CCC(n3nnc(-c4ccc(Cl)cc4)n3)CC2)n1` [Compound 35, 1-(4-(5-(4-chlorophenyl)-2H-tetrazol-2-yl)piperidin-1-yl)-2-(3-methyl-1,2,4-oxadiazol-5-yl)ethan-1-one]: the EC50 (as a rule, the concentration at which the effect is half-maximal) came out at 1080 nM.
As to `Cc1noc(CC(=O)N2CCC(c3nc(-c4cccc(Cl)c4)no3)CC2)n1` [Compound 36, 1-(4-(3-(3-chlorophenyl)-1,2,4-oxadiazol-5-yl)piperidin-1-yl)-2-(3-methyl-1,2,4-oxadiazol-5-yl)ethan-1-one], the EC50 was found to be 1630 nM.
On to `Cc1noc(CC(=O)N2CCC(c3nc(C4CCC(C(F)(F)F)CC4)no3)CC2)n1` (centres unmarked) [Compound 37, 2-(3-methyl-1,2,4-oxadiazol-5-yl)-1-(4-(3-(4-(trifluoromethyl)cyclohexyl)-1,2,4-oxadiazol-5-yl)piperidin-1-yl)ethan-1-one], for which the EC50 amounted to 7020 nM.
As to `Cc1noc(CC(=O)N2CCC(c3nc(-c4ccc(Cl)c(OC(F)(F)F)c4)no3)CC2)n1` [Compound 38], the EC50 turned out to be 1050 nM.
Turning to `Cc1noc(CC(=O)N2CCC(c3nc(-c4ccc(OC(F)(F)F)cc4)no3)CC2)n1` [Compound 39, 2-(3-methyl-1,2,4-oxadiazol-5-yl)-1-(4-(3-(4-(trifluoromethoxy)phenyl)-1,2,4-oxadiazol-5-yl)piperidin-1-yl)ethan-1-one], the EC50 stood at 657 nM.
For the compound `Cc1noc(CC(=O)N2CCC(c3nc(C4CCC(F)(F)C4)no3)CC2)n1` (centres unmarked) [Compound 40, 1-(4-(3-(3,3-difluorocyclopentyl)-1,2,4-oxadiazol-5-yl)piperidin-1-yl)-2-(3-methyl-1,2,4-oxadiazol-5-yl)ethan-1-one], the EC50 is above 25000 nM.
For `Cc1noc(CC(=O)N2CCC(c3nc(C4CCC(F)(F)CC4)no3)CC2)n1` [Compound 41, 1-(4-(3-(4,4-difluorocyclohexyl)-1,2,4-oxadiazol-5-yl)piperidin-1-yl)-2-(3-methyl-1,2,4-oxadiazol-5-yl)ethan-1-one], the EC50 is above 10000 nM.
For the compound `Cc1noc(CC(=O)N2CCC(O)(c3nc(C4CCC(F)(F)CC4)no3)CC2)n1` [Compound 42, 1-(4-(3-(4,4-difluorocyclohexyl)-1,2,4-oxadiazol-5-yl)-4-hydroxypiperidin-1-yl)-2-(3-methyl-1,2,4-oxadiazol-5-yl)ethan-1-one], the EC50 is above 10000 nM.
In the case of `Cc1noc(CC(=O)N2CCC(c3noc(C45CC(F)(C4)C5)n3)CC2)n1` [Compound 43, 1-(4-(5-(3-fluorobicyclo[1.1.1]pentan-1-yl)-1,2,4-oxadiazol-3-yl)piperidin-1-yl)-2-(3-methyl-1,2,4-oxadiazol-5-yl)ethan-1-one], the EC50 is above 25000 nM.
Regarding `Cc1noc(CC(=O)N2CCC(c3nc(-c4ccc(Cl)c(F)c4)no3)CC2)n1` [Compound 44, 1-(4-(3-(4-chloro-3-fluorophenyl)-1,2,4-oxadiazol-5-yl)piperidin-1-yl)-2-(3-methyl-1,2,4-oxadiazol-5-yl)ethan-1-one], the EC50 stood at 229 nM.
For `Cc1noc(CC(=O)N2CCC(c3nc(-c4cc(F)cc(Cl)c4)no3)CC2)n1` [Compound 45, 1-(4-(3-(3-chloro-5-fluorophenyl)-1,2,4-oxadiazol-5-yl)piperidin-1-yl)-2-(3-methyl-1,2,4-oxadiazol-5-yl)ethan-1-one], the EC50 was 2190 nM.
In the case of `Cc1noc(CC(=O)N2CCC(c3nc(-c4ccc(F)cc4Cl)no3)CC2)n1` [Compound 46, 1-(4-(3-(2-chloro-4-fluorophenyl)-1,2,4-oxadiazol-5-yl)piperidin-1-yl)-2-(3-methyl-1,2,4-oxadiazol-5-yl)ethan-1-one], the concentration for a half-maximal effect (EC50) was determined as 2970 nM.
With `Cc1noc(CC(=O)N2CCC(c3nc(-c4ccc(F)c(F)c4)no3)CC2)n1` [Compound 47, 1-(4-(3-(3,4-difluorophenyl)-1,2,4-oxadiazol-5-yl)piperidin-1-yl)-2-(3-methyl-1,2,4-oxadiazol-5-yl)ethan-1-one], the concentration giving a half-maximal response (EC50) was 1450 nM.
For `Cc1noc(CC(=O)N2CCC(c3nc(-c4ccc(F)c(OC(F)(F)F)c4)no3)CC2)n1` [Compound 48, 1-(4-(3-(4-fluoro-3-(trifluoromethoxy)phenyl)-1,2,4-oxadiazol-5-yl)piperidin-1-yl)-2-(3-methyl-1,2,4-oxadiazol-5-yl)ethan-1-one], the EC50 was found to be 730 nM.
Take `Cc1noc(CC(=O)N2CCC(c3nc(-c4ccc(F)cc4)no3)CC2)n1` [Compound 49, 1-(4-(3-(4-fluorophenyl)-1,2,4-oxadiazol-5-yl)piperidin-1-yl)-2-(3-methyl-1,2,4-oxadiazol-5-yl)ethan-1-one]: the EC50 came out at 1440 nM.
The value for `Cc1noc(CC(=O)N2CCC(c3cc(-c4ccc(F)cc4)no3)CC2)n1` [Compound 50, 1-(4-(3-(4-fluorophenyl)isoxazol-5-yl)piperidin-1-yl)-2-(3-methyl-1,2,4-oxadiazol-5-yl)ethan-1-one] was above 10000 nM; that for `Cc1noc(CC(=O)N2CCC(n3nnc(-c4ccc(F)cc4)n3)CC2)n1` [Compound 51, 1-(4-(5-(4-fluorophenyl)-2H-tetrazol-2-yl)piperidin-1-yl)-2-(3-methyl-1,2,4-oxadiazol-5-yl)ethan-1-one] was 7640 nM; that for `Cc1noc(CC(=O)N2CCC(c3nc(-c4ccc(F)cc4)co3)CC2)n1` [Compound 52, 1-(4-(4-(4-fluorophenyl)oxazol-2-yl)piperidin-1-yl)-2-(3-methyl-1,2,4-oxadiazol-5-yl)ethan-1-one] was above 10000 nM.
With `Cc1noc(CC(=O)N2CCC(c3noc(-c4ccc(F)cc4)n3)CC2)n1` [Compound 53, 1-(4-(5-(4-fluorophenyl)-1,2,4-oxadiazol-3-yl)piperidin-1-yl)-2-(3-methyl-1,2,4-oxadiazol-5-yl)ethan-1-one], the EC50 was above 10000 nM.
Take `Cc1noc(CC(=O)N2CCC(O)(c3nc(-c4ccc(F)cc4)no3)CC2)n1` [Compound 54, 1-(4-(3-(4-fluorophenyl)-1,2,4-oxadiazol-5-yl)-4-hydroxypiperidin-1-yl)-2-(3-methyl-1,2,4-oxadiazol-5-yl)ethan-1-one]: the EC50 is above 10000 nM.
With `Cc1nocc1CC(=O)N1CCC(c2nc(C3CCCCC3)no2)CC1` [Compound 55, 1-(4-(3-cyclohexyl-1,2,4-oxadiazol-5-yl)piperidin-1-yl)-2-(3-methylisoxazol-4-yl)ethan-1-one] the figure was above 25000 nM; with `Cc1nocc1CC(=O)N1CCC(n2nnc(C3CCCCC3)n2)CC1` [Compound 56, 1-(4-(5-cyclohexyl-2H-tetrazol-2-yl)piperidin-1-yl)-2-(3-methylisoxazol-4-yl)ethan-1-one], above 25000 nM; with `Cc1nocc1CC(=O)N1CCC(c2nc(-c3ccc(Cl)c(Cl)c3)no2)CC1` [Compound 57, 1-(4-(3-(3,4-dichlorophenyl)-1,2,4-oxadiazol-5-yl)piperidin-1-yl)-2-(3-methylisoxazol-4-yl)ethan-1-one], 691 nM.
In the case of `Cc1nocc1CC(=O)N1CCC(c2nc(-c3ccc(F)cc3)no2)CC1` [Compound 58, 1-(4-(3-(4-fluorophenyl)-1,2,4-oxadiazol-5-yl)piperidin-1-yl)-2-(3-methylisoxazol-4-yl)ethan-1-one], the EC50 was determined as 2150 nM.
With `Cc1nonc1CC(=O)N1CCC(n2cc(C(=O)N3CCOCC3)nn2)CC1` [Compound 60, 2-(4-methyl-1,2,5-oxadiazol-3-yl)-1-(4-(4-(morpholine-4-carbonyl)-1H-1,2,3-triazol-1-yl)piperidin-1-yl)ethan-1-one] the figure was above 10000 nM; with `Cc1nonc1CC(=O)N1CCC(c2nc(C3CC3)no2)CC1` [Compound 61, 1-(4-(3-cyclopropyl-1,2,4-oxadiazol-5-yl)piperidin-1-yl)-2-(4-methyl-1,2,5-oxadiazol-3-yl)ethan-1-one], above 10000 nM.
For the compound `Cc1nonc1CC(=O)N1CCC(n2nnc(C3CC3)n2)CC1` [Compound 62, 1-(4-(5-cyclopropyl-2H-tetrazol-2-yl)piperidin-1-yl)-2-(4-methyl-1,2,5-oxadiazol-3-yl)ethan-1-one], the EC50 is at least 10000 nM.
On to `Cc1nonc1CC(=O)N1CCC(c2nc(C3CC4CCC3C4)no2)CC1` (centres unmarked) [Compound 64, 1-(4-(3-(bicyclo[2.2.1]heptan-2-yl)-1,2,4-oxadiazol-5-yl)piperidin-1-yl)-2-(4-methyl-1,2,5-oxadiazol-3-yl)ethan-1-one], for which the EC50 was determined as 447 nM.
On to `Cc1nonc1CC(=O)N1CCC(c2noc(C3CC34CCC4)n2)CC1` (centres unmarked) [Compound 65, 2-(4-methyl-1,2,5-oxadiazol-3-yl)-1-(4-(5-(spiro[2.3]hexan-1-yl)-1,2,4-oxadiazol-3-yl)piperidin-1-yl)ethan-1-one], for which the EC50 came out at 15000 nM.
With `Cc1nonc1CC(=O)N1CCC(c2nc(C3CCC3)no2)CC1` [Compound 66, 1-(4-(3-cyclobutyl-1,2,4-oxadiazol-5-yl)piperidin-1-yl)-2-(4-methyl-1,2,5-oxadiazol-3-yl)ethan-1-one] the figure was above 25000 nM; with `Cc1nonc1CC(=O)N1CCC(c2nc(C3CCC4(CC3)OCCO4)no2)CC1` [Compound 67, 1-(4-(3-(1,4-dioxaspiro[4.5]decan-8-yl)-1,2,4-oxadiazol-5-yl)piperidin-1-yl)-2-(4-methyl-1,2,5-oxadiazol-3-yl)ethan-1-one], above 10000 nM.
With `Cc1nonc1CC(=O)N1CCC(c2nc(C3CCC4(CC3)CC4)no2)CC1` [Compound 68, 2-(4-methyl-1,2,5-oxadiazol-3-yl)-1-(4-(3-(spiro[2.5]octan-6-yl)-1,2,4-oxadiazol-5-yl)piperidin-1-yl)ethan-1-one] the figure was 1860 nM.
With `Cc1nonc1CC(=O)N1CCC(c2noc(C3CCC4(CC3)CC4)n2)CC1` [Compound 69, 2-(4-methyl-1,2,5-oxadiazol-3-yl)-1-(4-(5-(spiro[2.5]octan-6-yl)-1,2,4-oxadiazol-3-yl)piperidin-1-yl)ethan-1-one], the EC50 was above 25000 nM.
On to `Cc1nonc1CC(=O)N1CCC(c2nc(C3CCCC3)no2)CC1` [Compound 70, 1-(4-(3-cyclopentyl-1,2,4-oxadiazol-5-yl)piperidin-1-yl)-2-(4-methyl-1,2,5-oxadiazol-3-yl)ethan-1-one], for which the EC50 turned out to be 3680 nM.
As for `Cc1nonc1CC(=O)N1CCC(n2nnc(C3CCCC3)n2)CC1` [Compound 71, 1-(4-(5-cyclopentyl-2H-tetrazol-2-yl)piperidin-1-yl)-2-(4-methyl-1,2,5-oxadiazol-3-yl)ethan-1-one], the EC50 was above 25000 nM.
